{"source": "patent US8192962B2", "about": "“Processes for detecting toxic substances” (Daikin Industries, Ltd., priority 2001, dated 2012)", "system": "Energy system protein genes", "test": "DNA chip mRNA expression in yeast, energy system protein genes (Table 4)", "assay_type": "cell-based, Saccharomyces cerevisiae S288C", "outline": "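Whole-genome yeast DNA chip hybridization (65° C., >12 h) of Cy-labeled cDNA from S288C cells exposed 2 h at 25° C. to a sub-lethal toxicant dose in YPD; value is intensity relative to chemical-free control.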", "data": [{"smiles": "COc1cc(CNC(=O)CCCCC=CC(C)C)ccc1O", "note": "[(12), 8-methyl-N-vanillyl-6-nonenamide]", "values": [{"measurement": "The level of expressed mRNA in the presence of chemical substance/The level of expressed mRNA in the absence of chemical substance", "setting": "yeast gene YAL060W", "value": 0.8}, {"measurement": "The level of expressed mRNA in the presence of chemical substance/The level of expressed mRNA in the absence of chemical substance", "setting": "yeast gene YBL058W, cells incubated two hours with the chemical substance", "value": 0.8}, {"measurement": "The level of expressed mRNA in the presence of chemical substance/The level of expressed mRNA in the absence of chemical substance", "setting": "yeast gene YBL099W, cells incubated two hours with the chemical substance", "value": 1.0}, {"measurement": "The level of expressed mRNA in the presence of chemical substance/The level of expressed mRNA in the absence of chemical substance", "setting": "yeast gene YBR001C, cells incubated two hours with the chemical substance", "value": 1.0}, {"measurement": "The level of expressed mRNA in the presence of chemical substance/The level of expressed mRNA in the absence of chemical substance", "setting": "yeast gene YBR185C, cells incubated two hours with the chemical substance", "value": 0.7}, {"measurement": "The level of expressed mRNA in the presence of chemical substance/The level of expressed mRNA in the absence of chemical substance", "setting": "yeast gene YBR221C, cells incubated two hours with the chemical substance", "value": 1.3}, {"measurement": "The level of expressed mRNA in the presence of chemical substance/The level of expressed mRNA in the absence of chemical substance", "setting": "yeast gene YCL040W", "value": 2.3}, {"measurement": "The level of expressed mRNA in the presence of chemical substance/The level of expressed mRNA in the absence of chemical substance", "setting": "yeast gene YCR005C", "value": 0.5}, {"measurement": "The level of expressed mRNA in the presence of chemical substance/The level of expressed mRNA in the absence of chemical substance", "setting": "yeast gene YCR012W", "value": 1.2}, {"measurement": "The level of expressed mRNA in the presence of chemical substance/The level of expressed mRNA in the absence of chemical substance", "setting": "yeast gene YCR046C, cells incubated two hours with the chemical substance", "value": 1.1}, {"measurement": "The level of expressed mRNA in the presence of chemical substance/The level of expressed mRNA in the absence of chemical substance", "setting": "yeast gene YCR105W, cells incubated two hours with the chemical substance", "value": 0.9}, {"measurement": "The level of expressed mRNA in the presence of chemical substance/The level of expressed mRNA in the absence of chemical substance", "setting": "yeast gene YDL021W", "value": 2.4}, {"measurement": "The level of expressed mRNA in the presence of chemical substance/The level of expressed mRNA in the absence of chemical substance", "setting": "yeast gene YDL067C, cells incubated two hours with the chemical substance", "value": 1.0}, {"measurement": "The level of expressed mRNA in the presence of chemical substance/The level of expressed mRNA in the absence of chemical substance", "setting": "yeast gene YDL078C, cells incubated two hours with the chemical substance", "value": 0.8}, {"measurement": "The level of expressed mRNA in the presence of chemical substance/The level of expressed mRNA in the absence of chemical substance", "setting": "yeast gene YDL107W, cells incubated two hours with the chemical substance", "value": 1.0}, {"measurement": "The level of expressed mRNA in the presence of chemical substance/The level of expressed mRNA in the absence of chemical substance", "setting": "yeast gene YDL174C", "value": 2.8}, {"measurement": "The level of expressed mRNA in the presence of chemical substance/The level of expressed mRNA in the absence of chemical substance", "setting": "yeast gene YDL181W, cells incubated two hours with the chemical substance", "value": 0.9}, {"measurement": "The level of expressed mRNA in the presence of chemical substance/The level of expressed mRNA in the absence of chemical substance", "setting": "yeast gene YDR001C", "value": 1.1}, {"measurement": "The level of expressed mRNA in the presence of chemical substance/The level of expressed mRNA in the absence of chemical substance", "setting": "yeast gene YDR050C, cells incubated two hours with the chemical substance", "value": 1.4}, {"measurement": "The level of expressed mRNA in the presence of chemical substance/The level of expressed mRNA in the absence of chemical substance", "setting": "yeast gene YDR079W, cells incubated two hours with the chemical substance", "value": 1.1}, {"measurement": "The level of expressed mRNA in the presence of chemical substance/The level of expressed mRNA in the absence of chemical substance", "setting": "yeast gene YDR178W, cells incubated two hours with the chemical substance", "value": 1.3}, {"measurement": "The level of expressed mRNA in the presence of chemical substance/The level of expressed mRNA in the absence of chemical substance", "setting": "yeast gene YDR231C", "value": 1.1}, {"measurement": "The level of expressed mRNA in the presence of chemical substance/The level of expressed mRNA in the absence of chemical substance", "setting": "yeast gene YDR298C, cells incubated two hours with the chemical substance", "value": 1.1}, {"measurement": "The level of expressed mRNA in the presence of chemical substance/The level of expressed mRNA in the absence of chemical substance", "setting": "yeast gene YDR377W, cells incubated two hours with the chemical substance", "value": 0.9}, {"measurement": "The level of expressed mRNA in the presence of chemical substance/The level of expressed mRNA in the absence of chemical substance", "setting": "yeast gene YDR529C, cells incubated two hours with the chemical substance", "value": 0.6}, {"measurement": "The level of expressed mRNA in the presence of chemical substance/The level of expressed mRNA in the absence of chemical substance", "setting": "yeast gene YEL024W, cells incubated two hours with the chemical substance", "value": 0.8}, {"measurement": "The level of expressed mRNA in the presence of chemical substance/The level of expressed mRNA in the absence of chemical substance", "setting": "yeast gene YEL039C, cells incubated two hours with the chemical substance", "value": 0.6}, {"measurement": "The level of expressed mRNA in the presence of chemical substance/The level of expressed mRNA in the absence of chemical substance", "setting": "yeast gene YER178W", "value": 1.3}, {"measurement": "The level of expressed mRNA in the presence of chemical substance/The level of expressed mRNA in the absence of chemical substance", "setting": "yeast gene YFL057C", "value": 1.0}, {"measurement": "The level of expressed mRNA in the presence of chemical substance/The level of expressed mRNA in the absence of chemical substance", "setting": "yeast gene YFR053C", "value": 1.7}, {"measurement": "The level of expressed mRNA in the presence of chemical substance/The level of expressed mRNA in the absence of chemical substance", "setting": "yeast gene YGL018C, cells incubated two hours with the chemical substance", "value": 1.0}, {"measurement": "The level of expressed mRNA in the presence of chemical substance/The level of expressed mRNA in the absence of chemical substance", "setting": "yeast gene YGL062W", "value": 1.6}, {"measurement": "The level of expressed mRNA in the presence of chemical substance/The level of expressed mRNA in the absence of chemical substance", "setting": "yeast gene YGL187C, cells incubated two hours with the chemical substance", "value": 0.8}, {"measurement": "The level of expressed mRNA in the presence of chemical substance/The level of expressed mRNA in the absence of chemical substance", "setting": "yeast gene YGL191W, cells incubated two hours with the chemical substance", "value": 0.9}, {"measurement": "The level of expressed mRNA in the presence of chemical substance/The level of expressed mRNA in the absence of chemical substance", "setting": "yeast gene YGL205W, cells incubated two hours with the chemical substance", "value": 1.1}, {"measurement": "The level of expressed mRNA in the presence of chemical substance/The level of expressed mRNA in the absence of chemical substance", "setting": "yeast gene YGL256W, cells incubated two hours with the chemical substance", "value": 0.9}, {"measurement": "The level of expressed mRNA in the presence of chemical substance/The level of expressed mRNA in the absence of chemical substance", "setting": "yeast gene YGR043C", "value": 3.3}, {"measurement": "The level of expressed mRNA in the presence of chemical substance/The level of expressed mRNA in the absence of chemical substance", "setting": "yeast gene YGR062C, cells incubated two hours with the chemical substance, 25° C., YPD medium", "value": 1.0}, {"measurement": "The level of expressed mRNA in the presence of chemical substance/The level of expressed mRNA in the absence of chemical substance", "setting": "yeast gene YGR087C, cells incubated two hours with the chemical substance", "value": 1.2}, {"measurement": "The level of expressed mRNA in the presence of chemical substance/The level of expressed mRNA in the absence of chemical substance", "setting": "yeast gene YGR174C, cells incubated two hours with the chemical substance", "value": 0.9}, {"measurement": "The level of expressed mRNA in the presence of chemical substance/The level of expressed mRNA in the absence of chemical substance", "setting": "yeast gene YGR192C", "value": 2.2}, {"measurement": "The level of expressed mRNA in the presence of chemical substance/The level of expressed mRNA in the absence of chemical substance", "setting": "yeast gene YGR244C", "value": 1.9}, {"measurement": "The level of expressed mRNA in the presence of chemical substance/The level of expressed mRNA in the absence of chemical substance", "setting": "yeast gene YGR254W", "value": 1.7}, {"measurement": "The level of expressed mRNA in the presence of chemical substance/The level of expressed mRNA in the absence of chemical substance", "setting": "yeast gene YHR179W", "value": 2.2}, {"measurement": "The level of expressed mRNA in the presence of chemical substance/The level of expressed mRNA in the absence of chemical substance", "setting": "yeast gene YIL160C", "value": 1.0}, {"measurement": "The level of expressed mRNA in the presence of chemical substance/The level of expressed mRNA in the absence of chemical substance", "setting": "yeast gene YIR031C, cells incubated two hours with the chemical substance", "value": 0.8}, {"measurement": "The level of expressed mRNA in the presence of chemical substance/The level of expressed mRNA in the absence of chemical substance", "setting": "yeast gene YJL052W", "value": 2.4}, {"measurement": "The level of expressed mRNA in the presence of chemical substance/The level of expressed mRNA in the absence of chemical substance", "setting": "yeast gene YJL121C, cells incubated two hours with the chemical substance", "value": 0.6}, {"measurement": "The level of expressed mRNA in the presence of chemical substance/The level of expressed mRNA in the absence of chemical substance", "setting": "yeast gene YJL166W, cells incubated two hours with the chemical substance", "value": 0.7}, {"measurement": "The level of expressed mRNA in the presence of chemical substance/The level of expressed mRNA in the absence of chemical substance", "setting": "yeast gene YJL216C, cells incubated two hours with the chemical substance", "value": 1.0}, {"measurement": "The level of expressed mRNA in the presence of chemical substance/The level of expressed mRNA in the absence of chemical substance", "setting": "yeast gene YJR009C", "value": 1.5}]}]}
